Assay results published in patent US10954243B2, “Substituted heterocyclic inhibitors of PTPN11” (NAVIRE PHARMA, INC., priority 2018, dated 2021).
Like-named read-outs stand apart in the source and are kept apart here.

Legend:
[1] = molecular target: PTPN11-E76K mutant enzyme (Homo sapiens (Human), UniProt Q06124, E76K); assay: PTPN11 enzymatic assay (DiFMUP phosphatase activity); type: biochemical; details: full length PTPN11-E76K mutant, 250 pM enzyme, DiFMUP 50 μM substrate
Method: Reaction was initiated by addition of DiFMUP (50 μM) at room temperature in 384-well black plate with a final reaction volume of 20 uL in assay buffer. After 1 hour, DiFMUP fluorescence signal was measured (Ex:340/Em:460) using Envision plate reader. Dose-response curves were analyzed using IC50 regression curve fitting (GeneData Screener). Curves were normalized to a high controls without inhibitor, and low controls without enzyme.

KYSE-520 cells = assay: pERK AlphaScreen; type: cell-based; details: Homo sapiens
Method: KYSE-520 cells (10 k cells/well) were grown in 384-well plate in 20 uL of medium (RPMI-1640, without phenol red, containing 10% FBS) at 37° C. with 5% CO2 overnight. DMSO (control) or increasing concentrations of compounds were diluted in medium, added to the 384-well plate (5 uL/well, final DMSO concentration of 1%), and cells were then incubated with compounds for 2 hr. Phospho-ERK levels were measured using phospho-ERK1/2 AlphaScreen SureFire (PerkinElmer, TGRESB10K) following manufacturer's recommendations. Dose-response curves were analyzed using IC50 regression curve fitting (GeneData Screener). Curves were normalized to a high control without inhibitor (DMSO only), and low control (1 μM selumetinib).

[2] = KYSE-520 cells, 2 hr incubation, phospho-ERK1/2 AlphaScreen SureFire, read-out: pERK Avg IC50
[3] = KYSE-520, 2 h, read-out: pERK Avg IC50 (nM)

Sequence of PTPN11-E76K mutant enzyme (Q06124 whole entry E76K): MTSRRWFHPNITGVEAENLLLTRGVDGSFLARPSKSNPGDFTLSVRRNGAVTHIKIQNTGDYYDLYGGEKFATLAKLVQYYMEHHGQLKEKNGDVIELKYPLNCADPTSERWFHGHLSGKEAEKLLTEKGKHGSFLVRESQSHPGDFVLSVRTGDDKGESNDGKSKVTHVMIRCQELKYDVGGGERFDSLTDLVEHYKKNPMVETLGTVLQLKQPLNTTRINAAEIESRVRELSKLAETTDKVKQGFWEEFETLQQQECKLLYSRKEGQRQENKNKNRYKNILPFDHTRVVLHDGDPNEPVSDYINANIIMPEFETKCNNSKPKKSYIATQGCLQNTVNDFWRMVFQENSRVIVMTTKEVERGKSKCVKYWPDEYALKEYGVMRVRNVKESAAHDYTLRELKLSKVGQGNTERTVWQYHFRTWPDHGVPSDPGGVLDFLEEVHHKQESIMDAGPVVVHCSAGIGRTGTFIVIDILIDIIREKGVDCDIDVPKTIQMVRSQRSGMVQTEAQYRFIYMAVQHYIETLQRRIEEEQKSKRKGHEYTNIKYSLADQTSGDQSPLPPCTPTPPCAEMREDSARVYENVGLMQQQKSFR

| SMILES | IC50 [1] | IC50 (KYSE-520 cells; [2]) | IC50 (KYSE-520 cells; [3]) |
| --- | --- | --- | --- |
| C[C@@H]1OCC2(CCN(c3nc4[nH]nc(-c5cccc(OC6COC6)c5Cl)c4nc3CO)CC2)[C@@H]1N [Example 21, (6-((3S,4S)-4-amino-3-methyl-2-oxa-8-azaspiro[4.5]decan-8-yl)-3-(2-chloro-3-(oxetan-3-yloxy)phenyl)-1H-pyrazolo[3,4-b]pyrazin-5-yl)methanol] | 558 nM | 2710 nM |  |
| C[C@@H]1OCC2(CCN(c3nc4[nH]nc(-c5cccc(Cl)c5Cl)c4nc3CO)CC2)[C@@H]1N [Example 16, (6-((3S,4S)-4-amino-3-methyl-2-oxa-8-azaspiro[4.5]decan-8-yl)-3-(2,3-dichlorophenyl)-1H-pyrazolo[3,4-b]pyrazin-5-yl)methanol] |  | 2 nM |  |
| CC1(N)CCN(c2nc3[nH]nc(-c4cccc(Cl)c4Cl)c3nc2O)CC1 [Example 3, 6-(4-amino-4-methylpiperidin-1-yl)-3-(2,3-dichlorophenyl)-1H-pyrazolo[3,4-b]pyrazin-5-ol] | 960 nM | 2000 nM |  |
| CC1(N)CCN(c2nc3[nH]nc(-c4cccc(Cl)c4Cl)c3nc2Cl)CC1 [Example 10, 1-(5-chloro-3-(2,3-dichlorophenyl)-1H-pyrazolo[3,4-b]pyrazin-6-yl)-4-methylpiperidin-4-amine] | 277 nM | 502 nM |  |
| CC1(N)CCN(c2nc3[nH]nc(-c4cccc(Cl)c4Cl)c3nc2C(=O)NO)CC1 [Example 13, 6-(4-Amino-4-methylpiperidin-1-yl)-3-(2,3-dichlorophenyl)-N-hydroxy-1H-pyrazolo[3,4-b]pyrazine-5-carboxamide] | 224 nM | 704 nM |  |
| CCNc1nccc(-c2n[nH]c3nc(N4CCC5(CC4)CO[C@@H](C)[C@H]5N)c(C)nc23)c1Cl [Example 18, (3S,4S)-8-(3-(3-chloro-2-(ethylamino)pyridin-4-yl)-5-methyl-1H-pyrazolo[3,4-b]pyrazin-6-yl)-3-methyl-2-oxa-8-azaspiro[4.5]decan-4-amine 2,2,2-trifluoroacetate] | 9 nM |  | 20 nM |
| CC1(N)CCN(c2nc3[nH]nc(-c4cccc(Cl)c4Cl)c3nc2-c2cc[nH]n2)CC1 [Example 5, 1-(3-(2,3-dichlorophenyl)-5-(1H-pyrazol-3-yl)-1H-pyrazolo[3,4-b]pyrazin-6-yl)-4-methylpiperidin-4-amine] | 397 nM | 1970 nM |  |
| CNc1nccc(-c2n[nH]c3nc(N4CCC(C)(N)CC4)c(CO)nc23)c1Cl [Example 11, (6-(4-amino-4-methylpiperidin-1-yl)-3-(3-chloro-2-(methylamino)pyridin-4-yl)-1H-pyrazolo[3,4-b]pyrazin-5-yl)methanol] | 17 nM |  |  |
| CC1(N)CCN(c2nc3[nH]nc(-c4cccc(Cl)c4Cl)c3nc2CF)CC1 [Example 15, 1-(3-(2,3-dichlorophenyl)-5-(fluoromethyl)-1H-pyrazolo[3,4-b]pyrazin-6-yl)-4-methylpiperidin-4-amine] | 1 nM | 0.4 nM |  |
| CNc1nccc(-c2n[nH]c3nc(N4CCC5(CC4)CO[C@@H](C)[C@H]5N)c(CO)nc23)c1Cl [Example 20, (6-((3S,4S)-4-Amino-3-methyl-2-oxa-8-azaspiro[4.5]decan-8-yl)-3-(3-chloro-2-(methylamino)pyridin-4-yl)-1H-pyrazolo[3,4-b]pyrazin-5-yl)methanol] | 3 nM | 2 nM |  |
| CC(O)c1nc2c(-c3cccc(Cl)c3Cl)n[nH]c2nc1N1CCC(C)(N)CC1 (stereo not drawn) [Example 12, 1-(6-(4-amino-4-methylpiperidin-1-yl)-3-(2,3-dichlorophenyl)-1H-pyrazolo[3,4-b]pyrazin-5-yl)ethanol] | 372 nM | 326 nM |  |
| CCNc1nccc(-c2n[nH]c3nc(N4CCC5(CC4)CO[C@@H](C)[C@H]5N)c(Cl)nc23)c1Cl [Example 19, (3S,4S)-8-(5-Chloro-3-(3-chloro-2-(ethylamino)pyridin-4-yl)-1H-pyrazolo[3,4-b]pyrazin-6-yl)-3-methyl-2-oxa-8-azaspiro[4.5]decan-4-amine] | 6 nM | 1 nM |  |
| CC1(N)CCN(c2nc3[nH]nc(-c4cccc(Cl)c4Cl)c3nc2C#N)CC1 [Example 4, 6-(4-amino-4-methylpiperidin-1-yl)-3-(2,3-dichlorophenyl)-1H-pyrazolo[3,4-b]pyrazine-5-carbonitrile] | 465 nM |  |  |
| CC1(N)CCN(c2nc3[nH]nc(-c4cccc(Cl)c4Cl)c3nc2C(F)F)CC1 [Example 14, 1-(3-(2,3-dichlorophenyl)-5-(difluoromethyl)-1H-pyrazolo[3,4-b]pyrazin-6-yl)-4-methylpiperidin-4-amine] | 22 nM | 36 nM |  |
| CC1(N)CCN(c2nc3[nH]nc(-c4cccc(Cl)c4Cl)c3nc2Br)CC1 [Example 2, 1-(5-bromo-3-(2,3-dichlorophenyl)-1H-pyrazolo[3,4-b]pyrazin-6-yl)-4-methylpiperidin-4-amine] | 317 nM | 580 nM |  |
| CC1(N)CCN(c2nc3[nH]nc(-c4cccc(Cl)c4Cl)c3nc2C(N)=O)CC1 [Example 8, 6-(4-amino-4-methylpiperidin-1-yl)-3-(2,3-dichlorophenyl)-1H-pyrazolo[3,4-b]pyrazine-5-carboxamide] | 90 nM |  |  |
| Cc1nc2c(-c3cccc(Cl)c3Cl)n[nH]c2nc1N1CCC(C)(N)CC1 [Example 1, 1-(3-(2,3-dichlorophenyl)-5-methyl-1H-pyrazolo[3,4-b]pyrazin-6-yl)-4-methylpiperidin-4-amine] | 68 nM | 93 nM |  |
| C[C@@H]1OCC2(CCN(c3nc4[nH]nc(-c5ccnc(OC6COC6)c5Cl)c4nc3CO)CC2)[C@@H]1N [Example 22, (6-((3S,4S)-4-amino-3-methyl-2-oxa-8-azaspiro[4.5]decan-8-yl)-3-(3-chloro-2-(oxetan-3-yloxy)pyridin-4-yl)-1H-pyrazolo[3,4-b]pyrazin-5-yl)methanol] | 48 nM | 3370 nM |  |
| CC1(N)CCN(c2nc3[nH]nc(-c4cccc(Cl)c4Cl)c3nc2C=O)CC1 [Example 9, 6-(4-amino-4-methylpiperidin-1-yl)-3-(2,3-dichlorophenyl)-1H-pyrazolo[3,4-b]pyrazine-5-carbaldehyde] | 190 nM | 647 nM |  |
| CC1(N)CCN(c2nc3[nH]nc(-c4cccc(Cl)c4Cl)c3nc2CO)CC1 [Example 7, (6-(4-amino-4-methylpiperidin-1-yl)-3-(2,3-dichlorophenyl)-1H-pyrazolo[3,4-b]pyrazin-5-yl)methanol] | 19 nM | 97 nM |  |
| CCNc1nccc(-c2n[nH]c3nc(N4CCC5(CC4)CO[C@@H](C)[C@H]5N)c(CO)nc23)c1Cl [Example 17, (6-((3S,4S)-4-amino-3-methyl-2-oxa-8-azaspiro[4.5]decan-8-yl)-3-(3-chloro-2-(ethylamino)pyridin-4-yl)-1H-pyrazolo[3,4-b]pyrazin-5-yl)methanol] |  | 9 nM |  |
| COc1nc2c(-c3cccc(Cl)c3Cl)n[nH]c2nc1N1CCC(C)(N)CC1 [Example 6, 1-(3-(2,3-dichlorophenyl)-5-methoxy-1H-pyrazolo[3,4-b]pyrazin-6-yl)-4-methylpiperidin-4-amine bis(2,2,2-trifluoroacetate)] | 950 nM |  | 3820 nM |
